Experimental data reported in patent US20260193619A1, “CULTURE MEDIUM COMPOSITION” (priority 2023, published 2026).

Assays:
HEK293 = experiment: Effect of sodium dichloroacetate on proliferation of HEK293 in suspension culture (viable cell density); assay type: cell-based, human; details: HEK293 (Viral Production Cells 2.0), Viral Production Medium + 5 mM sodium dichloroacetate vs medium without, 3 days, FIG. 1
Description: (§1) In the following Example 1, the ability of human embryonic kidney cell 293 (HEK293) to produce AAV was evaluated using sodium dichloroacetate. The reagents, cells, and medium used are as follows: • Sodium dichloroacetate: Sodium dichloroacetate (FUJIFILM Wako Pure Chemical Industries, Ltd., 326-87772) • HEK293: Viral Production Cells 2.0 (Thermo Fisher Scientific, A49784) • medium for HEK293: Viral Production Medium (Thermo Fisher Scientific: A4817901)
(§2) Viral Production Cells 2.0 were seeded in 30 mL of Viral Production Medium supplemented with GlutaMAXIM Supplement (Thermo Fisher Scientific: 35050061) to a final concentration of 4 mM in a 125 mL Erlenmeyer flask (VIOLAMO, SEF125V). The cells were then cultured in an incubator set at 37° C., 8% CO2 under stirring for two passages. […] On day 3, the number of viable cells was measured using a viable cell autoanalyzer Vi-CELL BLU (manufactured by Becman). […] 2 (Takara Bio: 6233), and the AAV8 genome titer was measured using 7500 Fast Real-Time PCR System (Thermo Fisher Scientific: 4357362). In addition, the number of viral particles was also measured using AAV-8 Titration ELISA Kit (PROGEN Biotechnik: PRAAV8). The full/empty capsid ratio (full capsid ratio) was calculated therefrom.

Human adenovirus 32 = experiment: Production of adenovirus in HEK293 by adding sodium dichloroacetate in suspension culture system; assay type: cell-based; details: HEK293 2.sus, CDM4HEK293 with or without sodium dichloroacetate, MOI 0.1
Description: In the following Example, the ability of human embryonic kidney cell 293 (HEK293) to produce adenovirus can be evaluated using sodium dichloroacetate. […] The cell number is measured using a hemocytometer and glutamine-containing 293 SFM II is added to 3×10^5 cells/mL. […] The cell number is measured using a hemocytometer and the culture solution is added to 3×10^5 cells/mL. 5 ML of the adjusted cell suspension is added to two Petri dishes and culturing with shaking (50 rpm) is performed in a CO2 incubator for 3-4 days. • (11) After culturing, steps (8) to (10) are repeated three times. • (12) After culturing for 3 days, the cell number is measured (FIG. 1) and adjusted to 1×10^5 cells/ml using CDM4HEK293 with or without addition of sodium dichloroacetate, and 5 mL thereof is added per Petri dish. […]

AAV8 = experiment: Production of AAV8 in HEK293 by adding sodium dichloroacetate (genome titer by real-time PCR, particles by ELISA, full capsid ratio); assay type: cell-based, human; details: HEK293, 5 mM sodium dichloroacetate, 3 days after transfection, medium without DCA = 100%
Description: as §1, §2

## O=C([O-])C(Cl)Cl.[Na+] [sodium dichloroacetate, Sodium dichloroacetate]
HEK293
  cell proliferation (viable cell density before dilution on day 3 after seeding): slightly inhibited cell proliferation
Human adenovirus 32
  adenovirus titer: Improvement
AAV8; FIG. 2
  AAV8 genome titer (relative): improvements
AAV8; FIG. 3
  full capsid ratio (relative): improvements
